This is an account of results in patent US20080058383A1 (priority 2003, published 2008).

Test [1] deals with T1, Recombinant human androgen receptor (hAR) (Homo sapiens, UniProt P10275).
T1 construct: made in house; host or cells: Sf9 insect cells
T1 sequence (P10275 1-920): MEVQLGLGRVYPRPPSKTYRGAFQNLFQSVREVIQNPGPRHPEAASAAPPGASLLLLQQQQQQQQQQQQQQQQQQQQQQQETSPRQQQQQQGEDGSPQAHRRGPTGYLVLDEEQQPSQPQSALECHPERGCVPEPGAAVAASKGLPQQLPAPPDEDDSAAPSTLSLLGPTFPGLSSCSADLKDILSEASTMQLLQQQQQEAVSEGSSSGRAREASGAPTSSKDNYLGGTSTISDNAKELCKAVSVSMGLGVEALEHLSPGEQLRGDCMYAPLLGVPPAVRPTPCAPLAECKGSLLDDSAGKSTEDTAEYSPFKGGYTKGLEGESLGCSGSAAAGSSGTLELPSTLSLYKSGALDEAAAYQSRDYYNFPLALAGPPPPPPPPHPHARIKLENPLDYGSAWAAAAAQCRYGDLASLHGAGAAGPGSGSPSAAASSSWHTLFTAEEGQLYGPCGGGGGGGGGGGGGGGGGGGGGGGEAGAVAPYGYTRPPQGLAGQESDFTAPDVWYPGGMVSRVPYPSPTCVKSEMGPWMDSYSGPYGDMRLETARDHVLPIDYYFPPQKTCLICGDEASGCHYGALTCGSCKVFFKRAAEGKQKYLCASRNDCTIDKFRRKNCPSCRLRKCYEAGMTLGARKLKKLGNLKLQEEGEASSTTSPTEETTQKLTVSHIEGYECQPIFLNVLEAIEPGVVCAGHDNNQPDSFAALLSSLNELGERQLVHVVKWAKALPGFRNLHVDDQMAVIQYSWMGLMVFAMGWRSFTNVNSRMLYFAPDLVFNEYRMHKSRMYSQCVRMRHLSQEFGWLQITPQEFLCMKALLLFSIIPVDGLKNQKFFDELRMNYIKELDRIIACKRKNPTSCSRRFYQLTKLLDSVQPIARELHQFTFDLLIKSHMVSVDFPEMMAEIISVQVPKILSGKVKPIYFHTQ
In words: AR competition binding assay (3H-mibolerone tracer). The procedure: Recombinant human androgen receptor (hAR) was extracted from Sf9 insect cells with buffer containing 1 mM EDTA, 20 mM K2HPO4, 8.7% glycerol, 20 mM Na2MoO4 and 12 mM MTG at 5*10^7 cells/ml. The cell debris was removed by centrifugation and the supernatant aliquoted and stored at −70° C.
An aliquot of AR extract was thawed on ice prior to use and diluted to approximately 0.2 nM (1 to 30 dilution) in buffer (100 mM KnHmPO4 pH 7.0, 1 mM EDTA, 8.7% glycerol, 20 mM Na2MoO4 and 1 mM DTT). The test ligands were diluted in DMSO as a dilution series of 10 concentrations in duplicate, with 1:5 dilution between each concentration. Tritiated mibolerone (^3H-Mib) was used as tracer compound and diluted to 1.6 nM in 1 mM EDTA, 20 mM Na2MoO4, 8.7% glycerol and 1 mM DTT. To a 96-well polypropylene-plate 110 μl/well of 1.6 nM ^3H-Mib, 10 μl/well test substance and 110 μl/well diluted AR was added. The plates were covered and incubated at +4° C. over night. The plates were harvested on filters to separate bound ligand from unbound ligand with a Tomtec Harvester. A prewet buffer containing 20 mM Kn(PO4) pH 7.6, 1 mM EDTA, v/v 0.5% polyethyleneimine was used to equilibrate the filter before filtering the samples and washing the filters with 20 mM Kn(PO4) pH 7.6, 1 mM EDTA 8 times. The filters were allowed to dry for 1 hour at +65° C. A scintillating wax was melted upon the filter and the radioactivity retained on the filter was measured in a Wallac Microbeta scintillation counter.
The affinity to AR was evaluated by a non-linear four-parameter logisitic model: b=(bmax−bmin)/(1+(IC50/I)̂S)+bmin, where bmax=total concentration of binding sites, bmin=non-specific binding, I=added concentration of binding inhibitor, IC50=concentration of binding inhibitor at half-maximal binding and S=slope factor. Table: Antagonist and partial antagonist and binding activity of androgen receptor modulator compounds.

Test [2] concerns the target T2, androgen receptor (CMV-hAR) in CV-1 cells (Homo sapiens, UniProt P10275).
T2 construct: expressed in transfected cells
T2 sequence (P10275 1-920): T1 sequence (P10275 1-920)
Description: AR transactivation assay, antagonist mode (ARAF cells, ALP reporter, presence of 0.1 nM Mibolerone). The note with it: for ARAF % ANTAGONIST: decrease in ALP activity in the presence of 0.1 nM Mibolerone. The test is classed as cell-based. The procedure:
(§1) The agonist and antagonist properties of compounds were determined using a cell-based system expressing stably integrated androgen receptor and an androgen responsive reporter gene. CV-1 cells (kidney fibroblasts) stably expressing CMV-hAR and alkaline phosphatase (ALP) driven by an MMTV promoter containing an androgen response element were cultured in Dulbecco's Modified Eagle Medium (DMEM), low glucose supplemented with 10% fetal bovin serum, 1% L-glutamine, and 0.7% Hygromycine B. The stably integrated cells (ARAF) were trypsinized and resuspended in Opti-MEM 1 supplemented with 2% fetal bovine serum, 1% L-Glutamine, 50 μg/ml Gentamicine and 1% Pen/Strep. The cells were counted in a Birch chamber and diluted to a concentration of 100 000 cells/ml. The cells were then seeded out in 384 plates, 5000 cells/well in 50 μl seeding media and incubated overnight in 37 C, 5% CO2.
(§2) The next day, the seeding medium was removed from the cells and 20 μl induction media (Opti-MEM 1 supplemented with 1% L-Glutamine, 50 μg/ml Gentamicine and 1% Pen/Strep)+/−0.1 nM Mibolerone was added to the wells. 10 μl of test compound diluted in induction media was then added to the wells. The cells were incubated 48 hr in 37 C, 5% CO2.
(§3) After 48 hr 5 μl of cell medium was added to white 384 plates with 100 μl of ALP substrate buffer. The plates were incubated in 37 C for 20 minutes followed by incubation at room temperature for 10 minutes before each well was read in a μBETA machine. Agonist activity was calculated from the alkaline phosphatase activity induced in the absence of Mibolerone and compared to standard activation curve generated by Mibolerone alone. Antagonist activity was calculated from the decrease in ALP activity in the presence of 0.1 nM Mibolerone. EC50 and IC50 values were calculated by using a non-linear four-parameter fit as described above.

Test [3] has as its target T2, androgen receptor (CMV-hAR) in CV-1 cells. In words: AR transactivation assay, agonist mode (ARAF cells, ALP reporter, absence of Mibolerone). The note with it: for ARAF % AGONIST: ALP activity in absence of Mibolerone compared to standard activation curve of Mibolerone alone. It is filed as cell-based. How it is done: as §1, §2, §3
The mark [4] stands for this setting: competition with 3H-Mib, hAR extract from Sf9 cells, +4° C. over night, read-out: AR_LT IC50.
Where [5] appears, read: CV-1 cells stably expressing hAR and MMTV-ALP, absence of Mibolerone, 48 hr, read-out: ARAF EC50.
[6] abbreviates: CV-1 cells stably expressing hAR and MMTV-ALP, presence of 0.1 nM Mibolerone, 48 hr, read-out: ARAF IC50.

pEC50, pIC50: −log10 of the molar value. Like-named read-outs stand apart in the source and are kept apart here.

By pIC50 is commonly meant the IC50 on a negative log10 scale, so that one unit is a factor of ten. For orientation: pEC50 means the negative decadic logarithm of the EC50, by convention in mol/L.

For the compound `N#Cc1ccc(NC2(CO)CCCC2)cc1C(F)(F)F` [Example-19, 4-(1-Hydroxymethyl-cyclopentylamino)-2-trifluoromethyl-benzonitrile], the pIC50 in test [1] (setting [4]) is 6.88. In test [2], the pIC50 is 7.65 and the “ARAF % ANTAGONIST” value was 95.6%.
Take `Cc1nc(NC(C)(C)CO)ccc1[N+](=O)[O-]` [Example-8, 2-Methyl-2-(6-methyl-5-nitro-pyridin-2-ylamino)-propan-1-ol]: the results for the pIC50 in test [1] (setting [4]) and in test [2] (setting [6]) were 6.62 and 7.65, respectively. Also, the “ARAF % AGONIST” value in test [3] is listed as 10.6%. Further, in test [3] (setting [5]), the pEC50 is 6.43. Moreover, the “ARAF % ANTAGONIST” value in test [2] is 82.5%.
As for `CC(C)(CO)Nc1ccc([N+](=O)[O-])c(C(F)(F)F)c1` [Example-1, 2-Methyl-2-(4-nitro-3-trifluoromethyl-phenylamino)-propan-1-ol], the pIC50 in test [1] (setting [4]) is 7.64. Besides, in test [3], the negative logarithm of the EC50 (pEC50) is 7.57 and the “ARAF % AGONIST” value was 51.7%. For the same compound, in test [2], the negative-log IC50 (pIC50) is 8.68 and the “ARAF % ANTAGONIST” value was found to be 33.1%.
Consider `CCC[C@@H](CO)Nc1ccc([N+](=O)O)cc1` [Example-103, (S)-2-(4-Nitro-phenylamino)-pentan-1-ol], for which the pIC50 in test [1] (setting [4]) is 7.01; in test [2] (setting [6]), 6.87. Besides, in test [2], the “ARAF % ANTAGONIST” value came to 92.9%.
Regarding `Cc1cc(NC(C)(C)CO)ccc1[N+](=O)[O-]` [Example-5], the results for the pIC50 in test [1] (setting [4]) and in test [2] (setting [6]) were 7.42 and 8.14, respectively. The “ARAF % AGONIST” value in test [3] worked out at 29.3%. Further, in test [3] (setting [5]), the negative logarithm of the EC50 (pEC50) was 7.09. In test [2], the “ARAF % ANTAGONIST” value stood at 61%.
Take `CC(C)[C@@H](CO)Nc1ccc([N+](=O)[O-])c(C(F)(F)F)c1` [Example-30]: the pIC50 in test [1] (setting [4]) was 6.95. Further, in test [3], the negative-log EC50 (pEC50) was 5.97 and the “ARAF % AGONIST” value stood at 7.3%. In test [2], the pIC50 is 7.17 and the “ARAF % ANTAGONIST” value is 88.7%.
For the compound `CCCC[C@@H](CO)Nc1ccc([N+](=O)[O-])c(C)n1` [Example-60], the values for the pIC50 in test [1] (setting [4]) and in test [2] (setting [6]) were 7.17 and 7.56, respectively. In test [3], the “ARAF % AGONIST” value came to 9.3%. For the same compound, in test [3] (setting [5]), the pEC50 is 6.47. Besides, the “ARAF % ANTAGONIST” value in test [2] was 79.3%.
Take `Cc1cc(NCCNc2ccc([N+](=O)[O-])cn2)ccc1[N+](=O)[O-]` [Example-86]: the pIC50 in test [1] (setting [4]) is 6.35; in test [2] (setting [6]), 6.46. Moreover, in test [2], the “ARAF % ANTAGONIST” value is 100%.
Take `CCCC(CO)Nc1ccc([N+](=O)[O-])c(C(F)(F)F)c1` (centres unmarked) [Example-42]: the pIC50 in test [1] and in test [2] (setting [6]) was 6.31 throughout. For the same compound, the “ARAF % ANTAGONIST” value in test [2] came to 92%.
Take `O=[N+]([O-])c1ccc(N[C@H](CO)CSCc2ccccc2)cc1C(F)(F)F` [Example-41]: the negative-log IC50 (pIC50) in test [1] (setting [4]) was 7.19; in test [2] (setting [6]) it was 6.31. In addition, in test [2], the “ARAF % ANTAGONIST” value was found to be 71.7%.
On to `Cc1nc(N[C@H](CO)CSCc2ccccc2)ccc1[N+](=O)[O-]` [Example-65], for which the pIC50 in test [1] (setting [4]) was 8.21; in test [2] (setting [6]) it was 7.11. For the same compound, in test [3], the “ARAF % AGONIST” value was determined as 7%. In addition, the pEC50 in test [3] (setting [5]) was 5.73. Moreover, in test [2], the “ARAF % ANTAGONIST” value was 89.2%.
For `CCC[C@@H](CO)Nc1ccc([N+](=O)[O-])cc1Br` [Example-106, (S)-2-(2-Bromo-4-nitro-phenylamino)-pentan-1-ol], the results for the pIC50 in test [1] and in test [2] (setting [6]) were 6.77 and 6.62, respectively. Besides, in test [2], the “ARAF % ANTAGONIST” value is reported as 88.2%.
For `CCCC(CO)Nc1ccc([N+](=O)[O-])c(C)c1` (centres unmarked) [Example-78], the pIC50 is 7.26 in test [1] (setting [4]) and 7.59 in test [2] (setting [6]). Besides, the “ARAF % AGONIST” value in test [3] was 25%. Also, the pEC50 in test [3] (setting [5]) was 6.55. Moreover, in test [2], the “ARAF % ANTAGONIST” value is 65.4%.
Consider `CC[C@H](C)[C@@H](CO)Nc1ccc([N+](=O)[O-])c(C)n1` [Example-61], for which the pIC50 in test [1] (setting [4]) was 7.05. In test [2], the pIC50 is 7.17 and the “ARAF % ANTAGONIST” value is reported as 87.4%.
